Consider five compounds from patent publication US20080038251A1, “MN/CA IX and MAPK inhibition” (priority 2006, published 2008).

Entries after “also recorded” stand apart in the source; their conditions may differ.

One data set has as its system tumor xenograft models. The conditions noted are these: cited from earlier work.
The subject of the next data set is MEK. The conditions noted are these: biochemical assays; cited from earlier work.
For data set [1] the following is noted: compared with CI-1040; cited from earlier work.
For data set [2] the following is noted: compared with CI-1040; cited from earlier work. The source holds these as a separate data set.
The conditions of data set [3]: compared with CI-1040; cited from earlier work. This is another data set of the same source.
Data set [4] relates to PR1-HRE CA9 promoter.
Experimental: To dissect a direct contribution of HIF-1 to transcriptional activation of CA9 promoter, the inventors performed an additional experiment using Ka1.13 cell line that is defective for HIF-1α. The Ka1.13 cells were transfected either with PR1-HRE-luc reporter plasmid+renilla standard+control pcDNA3.1 plasmid or with the PR1-HRE-luc reporter plasmid+renilla standard+HIF-1α cDNA.
Cultures were pre-incubated with the inhibitors 1 h before the induction of hypoxia or addition of DFO.
The cells were plated into 30 mm Petri dishes to reach approximately 60% monolayer density on the next day. Transfection was performed with the 2 μg of PR1-HRE-luc and 100 ng of pRL-TK plasmids DNAs using a GenePorterII reagent (Gene Therapy Systems, San Diego, Calif.) according to the manufacturer's recommendation. One day later, the transfected cells were trypsinized and plated in triplicates into 24-well plates at different densities so that the dense culture contained eight times more cells than the sparse one. The cells were allowed to attach for 20 h, then they were pre-treated with inhibitors for 1 h and transferred to hypoxia (or treated with DFO) for additional 24 h. Reporter gene expression was assessed 48 h after the transfection using the Dual-Luciferase Reporter Assay System (Promega) and the luciferase activity was normalized against the renilla expression.
Therefore, the Ka13 cells were plated at intermediate density, transfected with the PR1-HRE-luc promoter construct together with the renilla control plasmid and pcDNA3.1 plasmid, pre-treated with the U0126 MAPK pathway inhibitor and exposed to a DFO-induced hypoxia. Parallel dishes were maintained in absence of DFO.
In data set [5] the test system is PR1-HRE CA9 promoter. Kind of data set: PR1-HRE-luc CA9 promoter luciferase-renilla reporter assay in HEK293 cells. The format is cell-based, human. As to the method: The inventors used PR1-HRE promoter region of CA9 ([…]) that contains HRE element and SP1 binding site, and assessed its transcriptional activity in luciferase-renilla reporter system. First, the PR1-HRE-luc plasmid was co-transfected together with renilla internal standard to HEK293 cells plated in high density and treated by the U0126 inhibitor of ERK (MAP kinases) for 20 h (FIG. 8). The promoter activity was analyzed in the transfected cells incubated in normoxic conditions or in the presence of DFO that can induce a chemical hypoxia. The promoter activity was determined as a ratio between the luciferase-related luminescence and renilla-related luminescence.
(§1) The PR1-HRE-luc promoter construct was generated by an insertion of a −50/+37 CA9 genomic region amplified by PCR upstream of the firefly luciferase gene in pGL3-Basic luciferase reporter vector (Promega). pRL-TK renilla vector (Promega) served for the control of the transfection efficiency.
Background: In a reporter assay the amount or activity of a reporter protein is the signal.

Data set [6] concerns PR1-HRE CA9 promoter. Kind of data set: PR1-HRE-luc CA9 promoter luciferase-renilla reporter assay in HeLa cells. The class given is cell-based, human.
Text: as §1
Therefore, the inventors have cloned a −50/+37 CA9 genomic region, containing that module in its natural context relative to the transcription start site, upstream of the reporter luciferase gene. The PR1-HRE-luc promoter construct was then co-transfected with the renilla-coding control plasmid to HeLa cells that express CA IX protein in response to hypoxia and high cell density.

The subject of the next data set is CA IX protein. The data set is described as follows: Immunoblotting of endogenous CA IX protein expression in HeLa cells. The class given is cell-based, human. The conditions noted are these: data not shown; for CA IX protein level / hypoxic induction of CA IX protein: Example 9, hypoxia. As to the method:
HeLa cells were plated in dense (80,000 cells/cm^2) and sparse (10,000 cells/cm^2) cultures and incubated for 24 h. […] Parallel control dishes were pre-treated and maintained in normoxia for the same time period.
For the detection of CA IX, the cells were extracted with cold RIPA buffer for 15 min at 4° C. The extracts were then centrifuged (15 min at 13,000 rpm) and total protein concentrations were determined by BCA assay (Pierce, Rockford, Ill.). Samples of 30 μg total proteins were separated by the electrophoresis using 10% SDS-PAGE and blotted onto the PVDF membrane. Before immunodetection, the membrane was treated by the blocking buffer containing 5% non-fat milk in PBS with 0.2% Nonidet P-40 for 1 h and incubated for 1 h with M75 MAb diluted 1:2 in the blocking buffer. Then the membrane was washed, incubated for 1 h with the anti-mouse secondary antibody, washed again and developed with the ECL detection system. Intensity of CA IX-specific bands was analyzed by the Scion Image Beta 4.02 software (Scion Corporation, Frederick, Md.), and relative CA IX expression was expressed as percentages.

For data set [7] the following is noted: Phase I and II clinical trials; cited from earlier work.

As to `Cn1cnc2c(F)c(Nc3ccc(Br)cc3Cl)c(C(=O)NOCCO)cc21` [ARRY-142886], in the data set with tumor xenograft models, the anti-tumor activity result is on record as “potent anti-tumor activity”. Moreover, the “selectivity for MEK” value with MEK is reported as “high selectivity for MEK”.
Take `O=C(NOC[C@H](O)CO)c1ccc(F)c(F)c1Nc1ccc(I)cc1F` [PD-0325901]: in [1], the bioavailability result was “improved”. Also, the metabolic stability entry in [2] is recorded as “improved metabolic stability”. Also, the anti-tumor activity entry with tumor xenograft models is “potent anti-tumor activity”. Besides, the solubility entry in data set [3] is listed as “more soluble”.
Turning to `N#CC(=C(/N)Sc1ccccc1N)/C(C#N)=C(\N)Sc1ccccc1N` [U0126], in the data set with PR1-HRE CA9 promoter [4] (Example 3, Ka1.13 cells with control pcDNA3.1 or HIF-1α cDNA), the “PR1-HRE CA9 promoter transcriptional activity” value was “reduced the CA9 promoter activity in both the presence and absence of HIF-1α; also recorded: diminished transcription from PR1-HRE promoter both in the presence and in the absence of HIF-1α”. Besides, the “CA9 promoter activity, fraction of HIF-1α induced value” with PR1-HRE CA9 promoter [4] (Example 6, Ka13 co-transfected with wild-type HIF-1α cDNA) was “approximately one third”. Moreover, the “CA9 promoter activity, remaining fraction” value in the data set with PR1-HRE CA9 promoter [4] (Example 6, Ka13 with empty pcDNA3.1 (no HIF-1α), with and without DFO) was “less than a half”. Besides, the “PR1-HRE CA9 promoter transcriptional activity (luciferase/renilla ratio)” value in the data set on PR1-HRE CA9 promoter [5] (Example 1, HEK293 plated in high density, inhibitor 20 h, normoxia or DFO-induced hypoxia) is “down-regulation of the PR1-HRE CA9 promoter activity; also recorded: diminished PR1-HRE transcriptional activity both in normoxia and in hypoxia”. The CA9 promoter activity entry in the data set on PR1-HRE CA9 promoter [5] (Example 5, HEK293 dense culture exposed to hypoxia, data not shown) is recorded as “considerably inhibited; also recorded: remarkable reduction”; in the data set on PR1-HRE CA9 promoter [6] (Example 5, HeLa sparse and dense, normoxia or DFO hypoxia, 20 μM inhibitor) it was “about fourfold decrease; also recorded: remarkable reduction”. In addition, the “CA9 promoter activity, fraction of control value” with PR1-HRE CA9 promoter [6] (Example 8, dense hypoxic (1% O2) HeLa, 20 μM U0126, 10 μM LY294002) was “about one third”. Moreover, the “effect on CA9 promoter activity” value in the data set with PR1-HRE CA9 promoter [6] (Example 8, normoxic and sparse HeLa cells, compared with dense hypoxic cells) is given as “less pronounced”. Besides, in the data set on CA IX protein (Example 2, sparse and dense HeLa, normoxia (21% O2) and hypoxia (2% O2)), the “CA IX protein expression (Western blotting)” value is “evident also at the level of CA IX protein”. Moreover, the “endogenous CA IX protein levels” value in the data set on CA IX protein (Example 5, HeLa, hypoxia and/or high density) is “corresponded with the promoter activities”. Also, the “CA IX protein level / hypoxic induction of CA IX protein” value in the data set with CA IX protein (HeLa) is recorded as “reduced the CA IX protein level”.
As for “Rencarex: an MN-specific drug tested in Phase I and II clinical trials”, in [7], the “tolerability / drug-related side effects” value is listed as “well-tolerated, with no serious drug-related side effects”.
Turning to mithramycin A [MMA], in the data set with CA IX protein (HeLa), the “CA IX protein level / hypoxic induction of CA IX protein” value is given as “reduced the CA IX protein level”.
